Data published in the supplement of paper PMC10307832.

What was measured:
Assay in all cases: relative viability (nuclei count vs DMSO), 5 days (fraction); higher = more cells survive
[1] = compound: CN1CCN(c2ccc3nc(-c4c(N)c5c(F)cccc5[nH]c4=O)[nH]c3c2)CC1 [Dovitinib] + CC(=O)Nc1cccc(-n2c(=O)n(C3CC3)c(=O)c3c(Nc4ccc(I)cc4F)n(C)c(=O)c(C)c32)c1 [Trametinib] (partner 0.02 µM)
In short: (§1)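 Each reported value is a median over duplicate plates. It expresses relative viability: treated-well nuclei count divided by vehicle-well nuclei count. Lung cancer cell lines in 1536-well plates were dosed by pin tool a day after seeding, alone with one drug or with a fixed anchor-drug dose plus five library-drug doses (not always all listed) in √10 steps, and nuclei were counted after 5 days.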

[2] = compound: CN1CCN(c2ccc3nc(-c4c(N)c5c(F)cccc5[nH]c4=O)[nH]c3c2)CC1 [Dovitinib] + COc1cccc2cc(-c3nc([C@H]4CC[C@H](C(=O)O)CC4)n4ncnc(N)c34)[nH]c12 [OSI-027] (partner 0.5 µM)
In short: as §1

[3] = compound: CN1CCN(c2ccc3nc(-c4c(N)c5c(F)cccc5[nH]c4=O)[nH]c3c2)CC1 [Dovitinib] + C[C@@H](Oc1cc(-c2cnn(C3CCNCC3)c2)cnc1N)c1c(Cl)ccc(F)c1Cl [Crizotinib] (partner 1 µM)
In short: as §1

[4] = compound: CN1CCN(c2ccc3nc(-c4c(N)c5c(F)cccc5[nH]c4=O)[nH]c3c2)CC1 [Dovitinib] + N=C(N)NC(=N)NCCc1ccccc1 [Phenformin] (partner 250 µM)
In short: as §1

Row | Cell Line | relative viability ([1]; first compound 0.02 µM) | relative viability ([1]; first compound 0.06325 µM) | relative viability ([1]; first compound 0.2 µM) | relative viability ([1]; first compound 0.6325 µM) | relative viability ([1]; first compound 2 µM) | relative viability ([2]; first compound 0.02 µM) | relative viability ([2]; first compound 0.06325 µM) | relative viability ([2]; first compound 0.2 µM) | relative viability ([2]; first compound 0.6325 µM) | relative viability ([2]; first compound 2 µM) | relative viability ([3]; first compound 0.02 µM) | relative viability ([3]; first compound 0.06325 µM) | relative viability ([3]; first compound 0.2 µM) | relative viability ([3]; first compound 0.6325 µM) | relative viability ([3]; first compound 2 µM) | relative viability ([4]; first compound 0.02 µM) | relative viability ([4]; first compound 0.06325 µM) | relative viability ([4]; first compound 0.2 µM) | relative viability ([4]; first compound 0.6325 µM) | relative viability ([4]; first compound 2 µM)
1 | NCI-H3122 | 0.217 | 0.226 | 0.231 | 0.234 | 0.248 | 1.02 | 0.959 | 1 | 0.876 | 0.915 | 0.294 | 0.27 | 0.287 | 0.284 | 0.263 | 0.34 | 0.362 | 0.414 | 0.33 | 0.385
2 | PC-3 [JPC-3] | 0.767 | 0.675 | 0.731 | 0.738 | 0.715 | 0.86 | 0.767 | 0.8 | 0.732 | 0.779 | 0.928 | 0.923 | 0.963 | 1.01 | 0.984 | 0.486 | 0.494 | 0.467 | 0.474 | 0.474
3 | PC-14 | 0.743 | 0.795 | 0.822 | 0.696 | 0.86 | 0.827 | 0.804 | 1.02 | 0.751 | 0.933 | 0.815 | 0.906 | 0.865 | 0.862 | 0.893 | 0.657 | 0.563 | 0.553 | 0.542 | 0.765
4 | RERF-LC-KJ | 0.928 | 0.837 | 1.01 | 0.869 | 0.864 | 0.639 | 0.623 | 0.653 | 0.56 | 0.574 | 0.796 | 0.817 | 0.86 | 0.815 | 0.861 | 0.412 | 0.417 | 0.447 | 0.42 | 0.384
5 | SK-LU-1 | 0.429 | 0.516 | 0.491 | 0.551 | 0.52 | 0.3 | 0.386 | 0.359 | 0.388 | 0.316 | 0.835 | 0.984 | 0.86 | 0.958 | 0.974 | 0.515 | 0.525 | 0.594 | 0.595 | 0.528
6 | SK-MES-1 | 0.531 | 0.59 | 0.597 | 0.567 | 0.61 | 0.56 | 0.591 | 0.605 | 0.601 | 0.612 | 1.04 | 0.957 | 0.932 | 1.01 | 0.954 | 0.662 | 0.7 | 0.69 | 0.634 | 0.667
7 | SW 1573 | 0.579 | 0.617 | 0.563 | 0.551 | 0.592 | 0.715 | 0.641 | 0.676 | 0.455 | 0.725 | 0.773 | 0.809 | 0.805 | 0.749 | 0.804 | 0.355 | 0.413 | 0.473 | 0.282 | 0.359
8 | UMC-11 | 0.742 | 0.69 | 0.793 | 0.669 | 0.767 | 0.467 | 0.39 | 0.523 | 0.47 | 0.497 | 0.636 | 0.716 | 0.576 | 0.514 | 0.733 | 0.315 | 0.327 | 0.347 | 0.323 | 0.344
